Laboratory results taken from patent US9012655B2, “Antimicrobial/adjuvant compounds and methods” (Denouamed, Inc., priority 2011, dated 2015).
In brackets after ≈: the same amount, converted by molar mass.

How the values were obtained:
Experiment in all cases: MIC panel of challenge pathogens (CLSI)
Assay type in all cases: cell-based
[1] = tested on: Staphylococcus aureus AUR58 7005; settings: AUR587005, Staphylococcus aureus AUR58 7005
Summary of the method: (§1)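 Broth microdilution per CLSI guidelines. Final inoculum 2-8×10^5 CFU/ml, compounds serially two-fold diluted from 128 mg/L top concentration. Incubated in the dark at 30-37° C for 24-48 h, aerobic or anaerobic as appropriate. MIC read visually as 100% inhibition endpoint; MIC50 and MIC80 also reported.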

[2] = tested on: Staphylococcus aureus EUP MRSA002; settings: EUPMRSA002, Staphylococcus aureus EUP MRSA002
Summary of the method: as §1

[3] = tested on: Staphylococcus aureus EUP SAU040; settings: EUPSAU040, Staphylococcus aureus EUP SAU040
Summary of the method: as §1

[4] = tested on: Bacillus cereus NCTC6349; settings: Bacillus cereus NCTC6349
Summary of the method: as §1

[5] = tested on: Staphylococcus epidermidis NRS122; settings: Staphylococcus epidermidis NRS122
Summary of the method: as §1

[6] = tested on: Enterococcus faecium ATCC700221; settings: Enterococcus faecium ATCC700221
Summary of the method: as §1

[7] = tested on: Staphylococcus aureus EUP MRSA004; settings: EUPMRSA004, Staphylococcus aureus EUP MRSA004
Summary of the method: as §1

[8] = tested on: Staphylococcus aureus NRS2 (ATCC700698); settings: Staphylococcus aureus NRS2 (ATCC700698)
Summary of the method: as §1

[9] = tested on: Enterococcus faecalis ATCC51299; settings: Enterococcus faecalis ATCC51299
Summary of the method: as §1

[10] = tested on: Staphylococcus aureus ATCC43300; settings: Staphylococcus aureus ATCC43300
Summary of the method: as §1

[11] = tested on: Staphylococcus aureus AUR131 007035; settings: AUR131007035, Staphylococcus aureus AUR131 007035
Summary of the method: as §1

[12] = tested on: Staphylococcus aureus AUR59 7005; settings: AUR597005, Staphylococcus aureus AUR59 7005
Summary of the method: as §1

[13] = tested on: Staphylococcus epidermidis NRS7; settings: Staphylococcus epidermidis NRS7
Summary of the method: as §1

[14] = tested on: Staphylococcus aureus NRS1 (ATCC700699); settings: Staphylococcus aureus NRS1 (ATCC700699)
Summary of the method: as §1

[15] = tested on: Staphylococcus aureus NRS382; settings: Staphylococcus aureus NRS382
Summary of the method: as §1

[16] = tested on: Staphylococcus aureus NRS384; settings: Staphylococcus aureus NRS384
Summary of the method: as §1

[17] = tested on: Staphylococcus aureus NRS383; settings: Staphylococcus aureus NRS383
Summary of the method: as §1

[18] = tested on: Enterococcus faecalis ATCC29212; settings: Enterococcus faecalis ATCC29212
Summary of the method: as §1

[19] = tested on: Staphylococcus aureus AUR60 7005; settings: AUR607005, Staphylococcus aureus AUR60 7005
Summary of the method: as §1

MIC ([1]; read-out: 100% inhibition): 2 µg/mL (≈ 4.6 µM)
MIC50 ([1]; read-out: MIC50 (50%)): 1 µg/mL (≈ 2.3 µM)
MIC80 ([1]; read-out: MIC80 (80%)): 2 µg/mL (≈ 4.6 µM)
MIC ([2]; read-out: 100% inhibition): 0.5 µg/mL (≈ 1.15 µM)
MIC50 ([2]; read-out: MIC50 (50%)): 0.5 µg/mL (≈ 1.15 µM)
MIC80 ([2]; read-out: MIC80 (80%)): 0.5 µg/mL (≈ 1.15 µM)
MIC ([3]; read-out: 100% inhibition): 0.5 µg/mL (≈ 1.15 µM)
MIC50 ([3]; read-out: MIC50 (50%)): 0.5 µg/mL (≈ 1.15 µM)
MIC80 ([3]; read-out: MIC80 (80%)): 0.5 µg/mL (≈ 1.15 µM)
MIC ([4]; read-out: 100% inhibition): 0.5 µg/mL (≈ 1.15 µM)
MIC50 ([4]; read-out: MIC50 (50%)): 0.5 µg/mL (≈ 1.15 µM)
MIC80 ([4]; read-out: MIC80 (80%)): 0.5 µg/mL (≈ 1.15 µM)
MIC ([5]; read-out: 100% inhibition): 16 µg/mL (≈ 36.8 µM)
MIC50 ([5]; read-out: MIC50 (50%)): 4 µg/mL (≈ 9.2 µM)
MIC80 ([5]; read-out: MIC80 (80%)): 8 µg/mL (≈ 18.4 µM)
MIC ([6]; read-out: 100% inhibition): 0.5 µg/mL (≈ 1.15 µM)
MIC50 ([6]; read-out: MIC50 (50%)): 0.5 µg/mL (≈ 1.15 µM)
MIC80 ([6]; read-out: MIC80 (80%)): 0.5 µg/mL (≈ 1.15 µM)
MIC ([7]; read-out: 100% inhibition): ≤ 0.25 µg/mL
MIC50 ([7]; read-out: MIC50 (50%)): ≤ 0.25 µg/mL
MIC80 ([7]; read-out: MIC80 (80%)): ≤ 0.25 µg/mL
MIC ([8]; read-out: 100% inhibition): 0.5 µg/mL (≈ 1.15 µM)
MIC50 ([8]; read-out: MIC50 (50%)): 0.5 µg/mL (≈ 1.15 µM)
MIC80 ([8]; read-out: MIC80 (80%)): 0.5 µg/mL (≈ 1.15 µM)
MIC ([9]; read-out: 100% inhibition): 1 µg/mL (≈ 2.3 µM)
MIC50 ([9]; read-out: MIC50 (50%)): 1 µg/mL (≈ 2.3 µM)
MIC80 ([9]; read-out: MIC80 (80%)): 1 µg/mL (≈ 2.3 µM)
MIC ([10]; read-out: 100% inhibition): 0.5 µg/mL (≈ 1.15 µM)
MIC50 ([10]; read-out: MIC50 (50%)): 0.5 µg/mL (≈ 1.15 µM)
MIC80 ([10]; read-out: MIC80 (80%)): 0.5 µg/mL (≈ 1.15 µM)
MIC ([11]; read-out: 100% inhibition): 0.5 µg/mL (≈ 1.15 µM)
MIC50 ([11]; read-out: MIC50 (50%)): 0.5 µg/mL (≈ 1.15 µM)
MIC80 ([11]; read-out: MIC80 (80%)): 0.5 µg/mL (≈ 1.15 µM)
MIC ([12]; read-out: 100% inhibition): 0.5 µg/mL (≈ 1.15 µM)
MIC50 ([12]; read-out: MIC50 (50%)): 0.5 µg/mL (≈ 1.15 µM)
MIC80 ([12]; read-out: MIC80 (80%)): 0.5 µg/mL (≈ 1.15 µM)
MIC ([13]; read-out: 100% inhibition): 2 µg/mL (≈ 4.6 µM)
MIC50 ([13]; read-out: MIC50 (50%)): 1 µg/mL (≈ 2.3 µM)
MIC80 ([13]; read-out: MIC80 (80%)): 1 µg/mL (≈ 2.3 µM)
MIC ([14]; read-out: 100% inhibition): ≤ 0.25 µg/mL
MIC50 ([14]; read-out: MIC50 (50%)): ≤ 0.25 µg/mL
MIC80 ([14]; read-out: MIC80 (80%)): ≤ 0.25 µg/mL
MIC ([15]; read-out: 100% inhibition): 0.5 µg/mL (≈ 1.15 µM)
MIC50 ([15]; read-out: MIC50 (50%)): 0.5 µg/mL (≈ 1.15 µM)
MIC80 ([15]; read-out: MIC80 (80%)): 0.5 µg/mL (≈ 1.15 µM)
MIC ([16]; read-out: 100% inhibition): ≤ 0.25 µg/mL
MIC50 ([16]; read-out: MIC50 (50%)): ≤ 0.25 µg/mL
MIC80 ([16]; read-out: MIC80 (80%)): ≤ 0.25 µg/mL
MIC ([17]; read-out: 100% inhibition): 0.5 µg/mL (≈ 1.15 µM)
MIC50 ([17]; read-out: MIC50 (50%)): 0.5 µg/mL (≈ 1.15 µM)
MIC80 ([17]; read-out: MIC80 (80%)): 0.5 µg/mL (≈ 1.15 µM)
MIC ([18]; read-out: 100% inhibition): 1 µg/mL (≈ 2.3 µM)
MIC50 ([18]; read-out: MIC50 (50%)): 1 µg/mL (≈ 2.3 µM)
MIC80 ([18]; read-out: MIC80 (80%)): 1 µg/mL (≈ 2.3 µM)
MIC ([19]; read-out: 100% inhibition): 0.5 µg/mL (≈ 1.15 µM)
MIC50 ([19]; read-out: MIC50 (50%)): 0.5 µg/mL (≈ 1.15 µM)
MIC80 ([19]; read-out: MIC80 (80%)): 0.5 µg/mL (≈ 1.15 µM)
SMILES: Clc1ccc(Cc2sc(-c3nnn[nH]3)cc2-c2cccc(CC3CCCC3)c2)cc1 [DNM0610, 5-(5-(4-Chlorobenzyl)-4-(3-(cyclopentylmethyl)phenyl)thiophen-2-yl)-1H-tetrazole]
